Results taken from ChEMBL document CHEMBL1145678, “Histamine-release effectors from Angelica dahurica var. dahurica root” (1997).

Assays:
Mus musculus [1] = experiment: Effect on compound 48/80-induced histamine level in ddY mouse peritoneal cavity fluid assessed as histamine release at 25 mg/kg, ip administered 15 mins before compound 48/80 challenge measured after 10 mins by fluorometric assay relative to control; type: functional; conditions: route intraperitoneal
Mus musculus [2] = experiment: Effect on compound 48/80-induced histamine level in ddY mouse peritoneal cavity fluid assessed as histamine release at 10 mg/kg, ip administered 15 mins before compound 48/80 challenge measured after 10 mins by fluorometric assay relative to control; type: functional; conditions: route intraperitoneal

Row | Compound | Activity (Mus musculus [1]) | Activity (Mus musculus [2])
1 | COc1c2ccoc2c(OC[C@@H](O)C(C)(C)O)c2oc(=O)ccc12 [BYAKANGELICIN] | 57% | 105.4%
2 | COc1c2ccoc2cc2oc(=O)ccc12 [BERGAPTEN] | 55.4% | 108.2%
3 | CC(C)(O)[C@H](O)COc1c2ccoc2cc2oc(=O)ccc12 [OXYPEUCEDANIN HYDRATE] | 69.1% | 114.8%
4 | CC1(C)O[C@H]1COc1c2ccoc2cc2oc(=O)ccc12 [OXYPEUCEDANIN] | 136.1% | 142.6%
5 | COc1c2ccoc2c(OCC=C(C)C)c2oc(=O)ccc12 [PHELLOPTERIN] | 137.7% | 109.8%
6 | COc1c2ccoc2c(OC[C@@H](OC(C)=O)C(C)(C)O)c2oc(=O)ccc12 | 151% | 93.2%
